Measured values as given in PubChem BioAssay (NCI).
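Cultured in 96-well plates, cells were exposed to test compound for 48 hours across five concentrations. The concentration for 50% growth inhibition is given as GI50. TGI is the concentration that stops growth completely.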

Experiments:
Assay in all cases: DTP human tumour cell line panel, 48 h
MALME-3M melanoma = test system: MALME-3M melanoma
NCI/ADR-RES ovarian = test system: NCI/ADR-RES ovarian
DU-145 prostate = test system: DU-145 prostate
M14 melanoma = test system: M14 melanoma
ACHN renal = test system: ACHN renal
LOX IMVI melanoma = test system: LOX IMVI melanoma
HOP-92 NSCLC = test system: HOP-92 NSCLC
SK-MEL-2 melanoma = test system: SK-MEL-2 melanoma
TK-10 renal = test system: TK-10 renal
NCI-H460 lung = test system: NCI-H460 lung
SNB-75 CNS = test system: SNB-75 CNS
EKVX NSCLC = test system: EKVX NSCLC
NCI-H522 lung = test system: NCI-H522 lung
OVCAR-3 ovarian = test system: OVCAR-3 ovarian
UACC-257 melanoma = test system: UACC-257 melanoma
A498 renal = test system: A498 renal
BT-549 breast = test system: BT-549 breast
SF-295 CNS = test system: SF-295 CNS
KM12 colon = test system: KM12 colon
SK-MEL-5 melanoma = test system: SK-MEL-5 melanoma
OVCAR-4 ovarian = test system: OVCAR-4 ovarian
PC-3 prostate = test system: PC-3 prostate
IGROV1 ovarian = test system: IGROV1 ovarian
HCT-15 colon = test system: HCT-15 colon
SN12C renal = test system: SN12C renal
HS 578T breast = test system: HS 578T breast
HCC-2998 colon = test system: HCC-2998 colon
MDA-MB-231 breast = test system: MDA-MB-231 breast
SK-MEL-28 melanoma = test system: SK-MEL-28 melanoma
OVCAR-5 ovarian = test system: OVCAR-5 ovarian
UACC-62 melanoma = test system: UACC-62 melanoma
HOP-62 NSCLC = test system: HOP-62 NSCLC
MDA-MB-435 = test system: MDA-MB-435
HT29 colon = test system: HT29 colon
NCI-H23 lung = test system: NCI-H23 lung
CCRF-CEM leukemia = test system: CCRF-CEM leukemia
RPMI-8226 leukemia = test system: RPMI-8226 leukemia
A549 NSCLC = test system: A549 NSCLC
NCI-H226 lung = test system: NCI-H226 lung
SNB-19 CNS = test system: SNB-19 CNS
UO-31 renal = test system: UO-31 renal
K-562 leukemia = test system: K-562 leukemia
MOLT-4 leukemia = test system: MOLT-4 leukemia
HL-60(TB) leukemia = test system: HL-60(TB) leukemia
MCF7 breast = test system: MCF7 breast
COLO 205 colon = test system: COLO 205 colon
T-47D breast = test system: T-47D breast
SF-268 CNS = test system: SF-268 CNS
786-0 renal = test system: 786-0 renal
RXF 393 renal = test system: RXF 393 renal
SF-539 CNS = test system: SF-539 CNS
OVCAR-8 ovarian = test system: OVCAR-8 ovarian
CAKI-1 renal = test system: CAKI-1 renal
HCT-116 colon = test system: HCT-116 colon
SW-620 colon = test system: SW-620 colon
U251 CNS = test system: U251 CNS
SK-OV-3 ovarian = test system: SK-OV-3 ovarian

## C=CC(=O)N1CC[C@H](n2nc(C#Cc3cc(OC)cc(OC)c3)c3c(N)ncnc32)C1
MALME-3M melanoma
  GI50: 15.6 µM
  TGI: > 100 µM
NCI/ADR-RES ovarian
  GI50: 12.7 µM
  TGI: > 100 µM
DU-145 prostate
  GI50: 7.56 µM
  TGI: > 100 µM
M14 melanoma
  GI50: 15.3 µM
  TGI: > 100 µM
ACHN renal
  GI50: 3.76 µM
  TGI: > 100 µM
LOX IMVI melanoma
  GI50: 5.72 µM
  TGI: > 100 µM
HOP-92 NSCLC
  GI50: 1.84 µM
  TGI: 9.23 µM
SK-MEL-2 melanoma
  GI50: 8.49 µM
  TGI: 52.1 µM
TK-10 renal
  GI50: 4.03 µM
  TGI: > 100 µM
NCI-H460 lung
  GI50: 9.97 µM
  TGI: > 100 µM
SNB-75 CNS
  GI50: 0.343 µM
  TGI: 6.91 µM
EKVX NSCLC
  GI50: 30.7 µM
  TGI: > 100 µM
NCI-H522 lung
  GI50: 7.56 µM
  TGI: 37.9 µM
OVCAR-3 ovarian
  GI50: 4.13 µM
  TGI: > 100 µM
UACC-257 melanoma
  GI50: 10.8 µM
  TGI: > 100 µM
A498 renal
  TGI: 1.6 µM
BT-549 breast
  GI50: 1.05 µM
  TGI: 9.56 µM
SF-295 CNS
  GI50: 15.5 µM
  TGI: > 100 µM
KM12 colon
  GI50: 11.2 µM
  TGI: > 100 µM
SK-MEL-5 melanoma
  GI50: 9.57 µM
  TGI: 67.8 µM
OVCAR-4 ovarian
  GI50: 3.47 µM
  TGI: > 100 µM
PC-3 prostate
  GI50: 11.3 µM
  TGI: > 100 µM
IGROV1 ovarian
  GI50: 2.88 µM
  TGI: > 100 µM
HCT-15 colon
  GI50: 5.53 µM
  TGI: > 100 µM
SN12C renal
  GI50: 4.43 µM
  TGI: > 100 µM
HS 578T breast
  GI50: 1.71 µM
  TGI: 9.82 µM
HCC-2998 colon
  GI50: 17.2 µM
  TGI: > 100 µM
MDA-MB-231 breast
  GI50: 4.07 µM
  TGI: > 100 µM
SK-MEL-28 melanoma
  GI50: 21.9 µM
  TGI: > 100 µM
OVCAR-5 ovarian
  GI50: 62.3 µM
  TGI: > 100 µM
UACC-62 melanoma
  GI50: 6.95 µM
  TGI: > 100 µM
HOP-62 NSCLC
  GI50: 5.43 µM
  TGI: > 100 µM
MDA-MB-435
  GI50: 10.6 µM
  TGI: > 100 µM
HT29 colon
  GI50: 13.9 µM
  TGI: > 100 µM
NCI-H23 lung
  GI50: 17.5 µM
  TGI: > 100 µM
CCRF-CEM leukemia
  GI50: 4.57 µM
  TGI: > 100 µM
RPMI-8226 leukemia
  GI50: 2.45 µM
  TGI: 33.3 µM
A549 NSCLC
  GI50: 9.78 µM
  TGI: > 100 µM
NCI-H226 lung
  GI50: 6.42 µM
  TGI: > 100 µM
SNB-19 CNS
  GI50: 7.66 µM
  TGI: > 100 µM
UO-31 renal
  GI50: 1.32 µM
  TGI: > 100 µM
K-562 leukemia
  GI50: 13.2 µM
  TGI: > 100 µM
MOLT-4 leukemia
  GI50: 5.02 µM
  TGI: 69.3 µM
HL-60(TB) leukemia
  GI50: 6.23 µM
  TGI: 70.4 µM
MCF7 breast
  GI50: 3.78 µM
  TGI: > 100 µM
COLO 205 colon
  GI50: 15.8 µM
  TGI: > 100 µM
T-47D breast
  GI50: 5.22 µM
  TGI: > 100 µM
SF-268 CNS
  GI50: 4.19 µM
  TGI: > 100 µM
786-0 renal
  GI50: 2.24 µM
  TGI: > 100 µM
RXF 393 renal
  GI50: 1.06 µM
  TGI: 4.48 µM
SF-539 CNS
  GI50: 2.6 µM
  TGI: 65.9 µM
OVCAR-8 ovarian
  GI50: 8.36 µM
  TGI: > 100 µM
CAKI-1 renal
  GI50: 7.06 µM
  TGI: > 100 µM
HCT-116 colon
  GI50: 6.04 µM
  TGI: > 100 µM
SW-620 colon
  GI50: 15 µM
  TGI: > 100 µM
U251 CNS
  GI50: 6.38 µM
  TGI: > 100 µM

## COC(=O)CNc1nc(N(C)O)nc(N(C)O)n1
MALME-3M melanoma
  GI50: 19.3 µM
  TGI: 77.4 µM
NCI/ADR-RES ovarian
  GI50: 2.86 µM
  TGI: > 100 µM
DU-145 prostate
  GI50: 2.15 µM
  TGI: 45 µM
M14 melanoma
  GI50: 3.38 µM
  TGI: 32.6 µM
ACHN renal
  GI50: 1.35 µM
  TGI: > 100 µM
LOX IMVI melanoma
  GI50: 1.71 µM
  TGI: > 100 µM
HOP-92 NSCLC
  GI50: > 100 µM
  TGI: > 100 µM
SK-MEL-2 melanoma
  GI50: 3.45 µM
  TGI: 25.7 µM
TK-10 renal
  GI50: 1.61 µM
  TGI: > 100 µM
NCI-H460 lung
  GI50: 0.557 µM
  TGI: > 100 µM
SNB-75 CNS
  GI50: 4.2 µM
  TGI: > 100 µM
EKVX NSCLC
  GI50: 3.31 µM
  TGI: > 100 µM
NCI-H522 lung
  GI50: 3.73 µM
  TGI: > 100 µM
UACC-257 melanoma
  GI50: 11.6 µM
  TGI: 80.3 µM
A498 renal
  GI50: 20.3 µM
  TGI: > 100 µM
BT-549 breast
  GI50: 13.8 µM
  TGI: > 100 µM
SF-295 CNS
  GI50: 2.92 µM
  TGI: > 100 µM
KM12 colon
  GI50: 5.65 µM
  TGI: > 100 µM
SK-MEL-5 melanoma
  GI50: 2.2 µM
  TGI: 15.9 µM
OVCAR-4 ovarian
  GI50: 2.85 µM
  TGI: > 100 µM
PC-3 prostate
  GI50: > 100 µM
  TGI: > 100 µM
IGROV1 ovarian
  GI50: 7.38 µM
  TGI: 39.4 µM
HCT-15 colon
  GI50: 0.551 µM
  TGI: > 100 µM
SN12C renal
  GI50: 9.17 µM
  TGI: > 100 µM
HS 578T breast
  GI50: 8.96 µM
  TGI: > 100 µM
MDA-MB-231 breast
  GI50: 4.16 µM
  TGI: > 100 µM
SK-MEL-28 melanoma
  GI50: 4.53 µM
  TGI: > 100 µM
OVCAR-5 ovarian
  GI50: 9.24 µM
  TGI: > 100 µM
UACC-62 melanoma
  GI50: 4.3 µM
  TGI: 29.1 µM
HOP-62 NSCLC
  GI50: 2.12 µM
  TGI: > 100 µM
MDA-MB-435
  GI50: 10.5 µM
  TGI: > 100 µM
HT29 colon
  GI50: 6.5 µM
  TGI: > 100 µM
NCI-H23 lung
  GI50: 11.5 µM
  TGI: > 100 µM
CCRF-CEM leukemia
  GI50: 0.697 µM
  TGI: > 100 µM
RPMI-8226 leukemia
  GI50: 1.49 µM
  TGI: > 100 µM
A549 NSCLC
  GI50: 3.44 µM
  TGI: > 100 µM
NCI-H226 lung
  GI50: 8.31 µM
  TGI: > 100 µM
SNB-19 CNS
  GI50: 27.3 µM
  TGI: > 100 µM
UO-31 renal
  GI50: 3.02 µM
  TGI: 50.5 µM
K-562 leukemia
  GI50: 2.43 µM
  TGI: > 100 µM
MOLT-4 leukemia
  GI50: 1.69 µM
  TGI: > 100 µM
MCF7 breast
  GI50: 3.07 µM
  TGI: > 100 µM
COLO 205 colon
  GI50: 3.99 µM
  TGI: > 100 µM
SK-OV-3 ovarian
  GI50: 10.3 µM
  TGI: > 100 µM
T-47D breast
  GI50: 17.7 µM
  TGI: > 100 µM
SF-268 CNS
  GI50: 1.83 µM
  TGI: > 100 µM
786-0 renal
  GI50: 3.56 µM
  TGI: 66.8 µM
RXF 393 renal
  GI50: 4.85 µM
  TGI: > 100 µM
SF-539 CNS
  GI50: 3.48 µM
  TGI: > 100 µM
OVCAR-8 ovarian
  GI50: 3.31 µM
  TGI: > 100 µM
CAKI-1 renal
  GI50: 13.1 µM
  TGI: > 100 µM
HCT-116 colon
  GI50: 1.98 µM
  TGI: > 100 µM
SW-620 colon
  GI50: 5.07 µM
  TGI: > 100 µM
U251 CNS
  GI50: 2.26 µM
  TGI: > 100 µM
